Experimental data from PMC10859541 (Journal of Pharmaceutical Analysis, 2023).
Read-outs that look alike come from different tables or passages of the source.

Columns and labels:
Test in all cases: biolayer interferometry
Format in all cases: binding
[1] = target: T1, metadherin (MTDH) (Homo sapiens, UniProt Q86UE4)
T1 sequence (Q86UE4 1-582): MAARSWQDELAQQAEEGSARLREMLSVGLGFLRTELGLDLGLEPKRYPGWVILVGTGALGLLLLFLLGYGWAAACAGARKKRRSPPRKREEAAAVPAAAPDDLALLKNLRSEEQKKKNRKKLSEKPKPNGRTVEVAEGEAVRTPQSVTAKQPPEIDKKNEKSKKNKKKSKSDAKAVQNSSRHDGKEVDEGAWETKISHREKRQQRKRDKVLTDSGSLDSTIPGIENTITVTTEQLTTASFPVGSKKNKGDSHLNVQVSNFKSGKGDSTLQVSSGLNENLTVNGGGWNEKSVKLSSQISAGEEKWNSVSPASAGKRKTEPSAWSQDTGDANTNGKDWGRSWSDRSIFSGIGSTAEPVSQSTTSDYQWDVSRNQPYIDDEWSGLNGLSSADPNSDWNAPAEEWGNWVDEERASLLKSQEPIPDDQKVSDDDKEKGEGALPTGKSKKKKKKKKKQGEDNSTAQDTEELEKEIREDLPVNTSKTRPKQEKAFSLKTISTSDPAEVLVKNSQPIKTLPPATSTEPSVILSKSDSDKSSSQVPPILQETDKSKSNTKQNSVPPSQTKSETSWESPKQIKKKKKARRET

[2] = target: T2, PX domain containing serine/threonine kinase-like (PXK) (Homo sapiens, UniProt Q7Z7A4)
T2 sequence (Q7Z7A4 1-578): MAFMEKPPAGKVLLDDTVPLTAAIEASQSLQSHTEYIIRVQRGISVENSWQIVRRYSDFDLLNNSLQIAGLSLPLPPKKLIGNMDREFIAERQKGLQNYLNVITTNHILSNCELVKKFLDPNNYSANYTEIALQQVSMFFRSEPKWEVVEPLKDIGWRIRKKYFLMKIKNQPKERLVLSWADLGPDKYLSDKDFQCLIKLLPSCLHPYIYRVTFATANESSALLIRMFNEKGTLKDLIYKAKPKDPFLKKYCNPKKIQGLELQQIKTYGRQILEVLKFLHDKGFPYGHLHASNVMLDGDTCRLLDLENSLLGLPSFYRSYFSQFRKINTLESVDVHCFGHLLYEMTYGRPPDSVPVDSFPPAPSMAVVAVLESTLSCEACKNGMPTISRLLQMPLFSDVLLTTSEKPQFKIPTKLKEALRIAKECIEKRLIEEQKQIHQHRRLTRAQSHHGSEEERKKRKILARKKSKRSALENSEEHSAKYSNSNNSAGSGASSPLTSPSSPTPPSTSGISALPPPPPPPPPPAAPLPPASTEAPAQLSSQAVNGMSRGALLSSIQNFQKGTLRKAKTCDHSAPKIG

[3] = target: T2, PX domain containing serine/threonine kinase-like (PXK); remark: listed apart in the source
[4] = target: T1, metadherin (MTDH); remark: listed apart in the source

SMILES | Kd [1] [µM] | Kd [2] [µM] | Kd [3] [µM] | Kd [4] [µM]
O=C(O[C@@H]1Cc2c(O)cc(O)cc2O[C@@H]1c1cc(O)c(O)c(O)c1)c1cc(O)c(O)c(O)c1 [EGCG] | 0.27 | 2420 | – | –
CC(=O)Oc1cc(OC(C)=O)c2c(c1)O[C@H](c1cc(OC(C)=O)c(OC(C)=O)c(OC(C)=O)c1)[C@H](OC(=O)c1cc(OC(C)=O)c(OC(C)=O)c(OC(C)=O)c1)C2 [ProEGCG] | – | – | 1700 | 517
